Reference: patent publication US20250188069A1, “COMPOUNDS AND METHODS FOR DEGRADING CASEIN KINASE 1 ALPHA” (PIN THERAPEUTICS, INC., priority 2022, published 2025)
Where a name gives a salt, the structure may show the parent alone.

What was measured:
MV-4-11 cells = assay: AML cell viability assay (RealTime-Glo); format: cell-based; details: Homo sapiens, MV4-11; IC50 class; MV-4-11 cells, RealTime-Glo after 44 hrs of treatment (TABLE 4); read-out: Cell viability classification
CK1α = CK1α (Homo sapiens, UniProt P48729+Q96SW2); assay: CK1α degradation, Western blot in MV-4-11 cells; format: cell-based; design: CK1α levels were determined in MV-4-11 cells using Jess (Protein Simple); host or cells: MV-4-11; details: % reduction of CK1α compared to DMSO, MV4-11 cells at 1 μM for 4 hours, read-out: CK1α degradation classification
Protocol: MM.1S and NCCIT cells were obtained from ATCC and grown in RPMI-1640 supplemented with 10% FBS. MV-4-11 cells were obtained from ATCC and grown in IMDM supplemented with 10% FBS. The cells were maintained at 37° C. under 5% CO2.
Compounds of the present disclosure was added to cells (final DMSO concentration of 0.1%) and incubated for 4 hours. CK1α levels were determined in MV-4-11 cells using Western blot analysis. Whole cell lysates were prepared in lysis buffer (1×RIPA buffer [Thermo, 89900], 2 mM MgCl2 [Sigma, M1028], 0.05% Benzonase [Sigma, E1014], 1× Pierce protease inhibitor tablets EDTA-free [Thermo, A32965]). […] of the lysates were analyzed using Western blot with antibodies against CK1α (Abcam, ab108296) and β-actin (R&D Systems, MAB8929).
The efficacy of CK1α degradation of other part of compounds of the present disclosure was determined by treating MV4-11 cells at 1 μM (Final DMSO concentration of 0.1%) for 4 hours. Protein levels relative to DMSO are calculated for CK1α. The compounds are classified based on the amount of CK1α degradation (% reduction of CK1α compared to DMSO) as follows. • A: Degradation is greater than or equal to 75%; • B: Degradation is less than 75% & greater than or equal to 50%; • C: Degradation is less than […]; • ND: not determined.

Sequence of CK1α (P48729 whole entry): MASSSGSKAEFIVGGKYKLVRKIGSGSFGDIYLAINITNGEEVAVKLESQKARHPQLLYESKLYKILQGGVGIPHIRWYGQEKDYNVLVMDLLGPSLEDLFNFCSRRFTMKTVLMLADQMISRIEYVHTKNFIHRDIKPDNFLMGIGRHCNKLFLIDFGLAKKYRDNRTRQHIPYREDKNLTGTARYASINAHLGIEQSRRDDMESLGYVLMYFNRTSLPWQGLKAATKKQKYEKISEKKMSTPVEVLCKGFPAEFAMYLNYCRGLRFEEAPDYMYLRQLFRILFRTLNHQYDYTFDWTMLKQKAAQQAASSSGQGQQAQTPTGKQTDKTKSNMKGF
Sequence of CK1α (Q96SW2 whole entry): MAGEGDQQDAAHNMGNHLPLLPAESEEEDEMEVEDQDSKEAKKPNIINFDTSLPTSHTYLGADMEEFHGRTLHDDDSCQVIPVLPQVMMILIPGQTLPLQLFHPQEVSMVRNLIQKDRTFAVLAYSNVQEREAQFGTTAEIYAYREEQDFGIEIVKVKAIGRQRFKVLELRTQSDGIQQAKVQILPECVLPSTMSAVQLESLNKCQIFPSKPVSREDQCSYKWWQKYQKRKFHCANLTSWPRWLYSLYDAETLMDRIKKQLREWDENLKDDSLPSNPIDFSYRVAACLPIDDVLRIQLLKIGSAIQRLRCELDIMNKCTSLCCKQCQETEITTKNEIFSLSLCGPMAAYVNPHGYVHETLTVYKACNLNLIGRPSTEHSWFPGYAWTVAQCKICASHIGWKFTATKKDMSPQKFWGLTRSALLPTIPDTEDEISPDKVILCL
Sequence of CK1α (Q16531 whole entry partner): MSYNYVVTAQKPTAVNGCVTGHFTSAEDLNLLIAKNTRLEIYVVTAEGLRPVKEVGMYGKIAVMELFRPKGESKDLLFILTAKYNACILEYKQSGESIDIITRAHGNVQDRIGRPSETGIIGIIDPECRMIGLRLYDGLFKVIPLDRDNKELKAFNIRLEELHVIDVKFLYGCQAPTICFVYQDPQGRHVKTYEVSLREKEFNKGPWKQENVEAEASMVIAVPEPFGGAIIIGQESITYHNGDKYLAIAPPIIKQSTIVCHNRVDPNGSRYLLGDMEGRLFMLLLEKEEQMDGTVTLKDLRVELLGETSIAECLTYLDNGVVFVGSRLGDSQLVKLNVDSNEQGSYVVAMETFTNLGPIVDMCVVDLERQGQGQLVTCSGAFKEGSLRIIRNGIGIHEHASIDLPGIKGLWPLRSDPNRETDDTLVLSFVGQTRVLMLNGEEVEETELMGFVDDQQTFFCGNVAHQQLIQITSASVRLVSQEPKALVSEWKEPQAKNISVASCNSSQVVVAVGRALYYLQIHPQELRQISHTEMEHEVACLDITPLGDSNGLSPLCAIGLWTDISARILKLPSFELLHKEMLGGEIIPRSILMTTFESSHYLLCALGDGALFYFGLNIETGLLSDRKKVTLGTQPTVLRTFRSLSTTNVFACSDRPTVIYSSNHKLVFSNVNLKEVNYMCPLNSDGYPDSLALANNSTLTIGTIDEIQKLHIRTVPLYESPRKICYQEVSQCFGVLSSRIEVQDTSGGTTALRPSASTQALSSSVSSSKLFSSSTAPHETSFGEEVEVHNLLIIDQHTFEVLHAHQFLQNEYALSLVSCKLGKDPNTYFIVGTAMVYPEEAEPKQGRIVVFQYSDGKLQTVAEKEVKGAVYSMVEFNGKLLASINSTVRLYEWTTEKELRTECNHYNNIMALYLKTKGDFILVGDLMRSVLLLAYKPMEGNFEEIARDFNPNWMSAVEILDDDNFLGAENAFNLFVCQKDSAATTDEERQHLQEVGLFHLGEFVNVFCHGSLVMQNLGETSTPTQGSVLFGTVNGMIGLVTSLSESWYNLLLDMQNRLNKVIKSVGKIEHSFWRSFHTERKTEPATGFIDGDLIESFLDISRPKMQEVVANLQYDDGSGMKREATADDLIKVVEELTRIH

IC50 (MV-4-11 cells) [nM]	Dmax at 1 µM (CK1α) [%]	SMILES
< 100	> 75	O=C1CCC(N2Cc3c(cccc3N(CCC3CC3)[C@H]3C[C@@H](c4nnc[nH]4)C3)C2=O)C(=O)N1 (stereo partly drawn) [Compound 603, 3-{4-[(2-cyclopropylethyl)[(1s,3s)-3-(4H-1,2,4-triazol-3-yl)cyclobutyl]amino]-1-oxo-3H-isoindol-2-yl}piperidine-2,6-dione; formate]
< 100	> 75	O=C1CCC(N2Cc3c(cccc3N(CCC3CC3)[C@H]3C[C@H](c4nnc[nH]4)C3)C2=O)C(=O)N1 (stereo partly drawn) [Compound 604, 3-{4-[(2-cyclopropylethyl)[(1s,3s)-3-(4H-1,2,4-triazol-3-yl)cyclobutyl]amino]-1-oxo-3H-isoindol-2-yl}piperidine-2,6-dione; formate]
< 100	> 75	O=C1CCC(N2Cc3c(cccc3N(CCC3CC3)[C@H]3CC[C@H](NCC4(F)CC4)CC3)C2=O)C(=O)N1 (stereo partly drawn) [Compound 612, 3-{4-[(2-cyclopropylethyl)[(1r,4r)-4-{[(1-fluorocyclopropyl)methyl]amino}cyclohexyl]amino]-1-oxo-3H-isoindol-2-yl}piperidine-2,6-dione]
< 100	> 75	O=C1CCC(N2Cc3c(cccc3N(CCC3CC3)[C@H]3CC[C@H](NCC4(F)CCC4)CC3)C2=O)C(=O)N1 (stereo partly drawn) [Compound 613, 3-{4-[(2-cyclopropylethyl)[(1r,4r)-4-{[(1-fluorocyclobutyl)methyl]amino}cyclohexyl]amino]-1-oxo-3H-isoindol-2-yl}piperidine-2,6-dione]
< 100	> 75	CS(=O)(=O)C1(CN[C@H]2CC[C@H](N(CCC3CC3)c3cccc4c3CN(C3CCC(=O)NC3=O)C4=O)CC2)CC1 (stereo partly drawn) [Compound 615, 3-{4-[(2-cyclopropylethyl)[(1r,4r)-4-{[(1-methanesulfonylcyclopropyl)methyl]amino}cyclohexyl]amino]-1-oxo-3H-isoindol-2-yl}piperidine-2,6-dione; trifluoroacetate]
< 100	> 75	O=C1CCC(N2Cc3c(cccc3N(CCC3CC3)[C@H]3CC[C@H](NCC4(F)COC4)CC3)C2=O)C(=O)N1 (stereo partly drawn) [Compound 616, 3-{4-[(2-cyclopropylethyl)[(1r,4r)-4-{[(3-fluorooxetan-3-yl)methyl]amino}cyclohexyl]amino]-1-oxo-3H-isoindol-2-yl}piperidine-2,6-dione; trifluoro acetate]
100 to 1000	50 to 75	C[C@]1(N)CC[C@H](N(CCC2CC2)c2cccc3c2CN(C2CCC(=O)NC2=O)C3=O)CC1 (stereo partly drawn) [Compound 634, 3-{4-[(2-cyclopropylethyl)[(1r,4r)-4-amino-4-methylcyclohexyl]amino]-1-oxo-3H-isoindol-2-yl}piperidine-2,6-dione]
< 100	> 75	C[C@]1(N)CC[C@@H](N(CCC2CC2)c2cccc3c2CN(C2CCC(=O)NC2=O)C3=O)CC1 (stereo partly drawn) [Compound 635, 3-{4-[(2-cyclopropylethyl)[(1s,4s)-4-amino-4-methylcyclohexyl]amino]-1-oxo-3H-isoindol-2-yl}piperidine-2,6-dione]
100 to 1000	> 75	O=C1CCC(N2Cc3c(cccc3N(CCCCC(F)(F)F)[C@H]3CC[C@H](NCCC(F)(F)F)CC3)C2=O)C(=O)N1 (stereo partly drawn) [Compound 636, 3-(1-oxo-4-{[(1r,4r)-4-[(3,3,3-trifluoropropyl)amino]cyclohexyl](5,5,5-trifluoropentyl)amino}-3H-isoindol-2-yl)piperidine-2,6-dione; trifluoroacetate]
